Here are results for one compound from publication PMC12389006, “In Vitro and In Vivo Evaluation of Alectinib-Loaded Dendrimer Nanoparticles as a Drug Delivery System for Non-Small Cell Lung Carcinoma” (Pharmaceutics, 2025).

Where two headings read alike, the source gives them in different places.

Series [1] in a line: In vitro drug release, dialysis method in PBS. It counts as physicochemical. As to conditions: pH 6.8 PBS, 1.5% SLS, 37 °C. How it is done: In vitro drug release studies were performed using the dialysis method. A drug release study was conducted in vitro to measure the amount of drug released from the complex. […] The dissolution study was conducted using the USP II apparatus (paddle) under the following conditions: a stirring speed of 100 rpm, a temperature of 37.0 ± 0.5 °C, and volume of release media of 200 mL. The NP samples were placed in a plastic tube sealed with a dialysis membrane with a molecular weight cut-off (MWCO) of 14,000 Da, which was previously soaked in either buffer for 24 h. […] At predetermined time intervals, 1 mL aliquots were withdrawn and promptly replaced with fresh media. The collected samples were filtered by a 0.22 µm filter membrane and were subsequently injected into the HPLC system at a wavelength of 340 nm.

Series [2] has as its system A549 lung cancer cell line. The series can be described thus: MTT cytotoxicity assay. The note with it: Homo sapiens, A549, 72 h. In kind it is cell-based. How it is done:
The A549 cell line, composed of human alveolar basal epithelial adenocarcinoma cells, was used for the in vitro evaluation. Cells were obtained from ATCC through the Faculty of Pharmacy […] University. To maintain the A549 lung cancer cell line, Roswell Park Memorial Institute (RPMI) was employed. The medium was supplemented with 2 mL of L-glutamine, 50 mL of fetal bovine serum (FBS), and 5 mL of penicillin-streptomycin. The frozen A549 cell vials, stored in liquid nitrogen at approximately -196 °C, were quickly thawed at 37 °C in a water bath. The contents were then diluted with 10 mL of pre-warmed media and then centrifuged at 1500 rpm for 10 min. After discarding the supernatant, the tube was gently agitated to disperse the cells, and fresh medium (15 mL) was added. […] Their confluency level was maintained within the ideal range of 80-90%. To assess cell viability, a 1:1 mixture of 50 μL of Trypan blue stain and 50 μL of cell solution was prepared in an Eppendorf tube. Then, 5 × 10^3 cells were inoculated into individual wells of 96-well microplates using 100 μL of medium. […] Negative control wells received 0.1% DMSO, while blank wells were filled with RPMI medium without cells. […] The absorbance of the formazan solution in each well was promptly quantified at 590 nm utilizing a 96-well plate reader manufactured by Biotech, and the IC50 values were calculated according to Equation (2).

Series [3] concerns A549 cells. Briefly: Scratch-wound assay for cell migration. It counts as cell-based, human. As to conditions: A549, 72 h. The method, then: After the cells reached full confluence and formed a uniform monolayer, a scratch approximately 1 mm wide was created across the cell layer using a sterile 200 μL micropipette tip. The wells were then gently washed with phosphate-buffered saline (PBS) to remove cellular debris. […] To evaluate wound closure, images of the scratch area were captured at the start of the experiment (0 h) and after 72 h of treatment. Image analysis was performed using ImageJ® software (version 1.4.3.67, Symmetry Software) to measure the wound area and assess cell migration quantitatively

Series [4] relates to H460 large lung cancer cells. It counts as in vivo. As to conditions: H460 xenograft mice, 20 mg/kg.
Experimental: This study involved 24 male BALC mice, aged 5 weeks and weighing 20 ± 2 g, housed under controlled environmental conditions (temperature: 25.2 °C, humidity: 60 ± 5%, 12 h light–dark cycle) with ad libitum access to standard rodent chow and autoclaved water. […] Human lung large-cell carcinoma (H460) cells were cultured in RPMI 1640 medium, prepared through trypsinization and centrifugation, and underwent viability testing with Trypan blue exclusion, then were suspended in ECM Matrigel®. After 21 days of immunosuppression with 5 mg/kg dexamethasone administered intraperitoneally each mouse was subcutaneously injected in the right flank with 2.5 × 10^6 viable H460 cells. Tumor growth was monitored for 14 days using caliper measurements.
To establish an immunosuppressed xenograft model, dexamethasone (5 mg/kg) was administered to all mice for 21 days to suppress their immune response (Figure S8). Following immunosuppression, 2.5 × 10^6 H460 large lung cancer cells were subcutaneously injected into the mice, and tumor growth was monitored every day.
A short description of series [5]: Pharmacokinetic study in rats, LC-MS/MS of plasma. The note with it: rat, 20 mg/kg oral; for AUC0-t: 20 mg/kg. It counts as in vivo, Wistar rats. The method, then:
Quantification and identification of Alectinib were performed using liquid chromatography coupled with mass spectrometry (LC/MS), employing rosuvastatin as the internal standard (IS). […] Detection was carried out with an API-3000 triple quadrupole mass spectrometer (LCMS-2010A, Shimadzu, Japan) featuring an electrospray ionization (ESI) source operated in positive ion mode. […] Detection was achieved using multiple reaction monitoring (MRM) for specific m/z transitions. […] Prior to the experiment, the animals were fasted overnight with free access to water and were marked on the tail for individual identification. The rats were randomly divided into two groups. […] Blood samples were collected from the tail after warming for 30 s using a hot pad to facilitate sampling. […] Sample preparation was carried out using the liquid–liquid extraction (LLE) technique. Frozen plasma samples were thawed at room temperature, vortexed to ensure uniform mixing, and combined with 500 µL acetonitrile (ACN) as diluent, 300 µL plasma, and 50 µL rosuvastatin as the internal standard. The mixture was vortexed for 2 min, centrifuged at 4000 rpm for 15 min, and 200 µL of the supernatant was transferred into LC-MS insert vials. Subsequently, 20 µL of the processed sample was analyzed using LC-MS/MS for quantification and pharmacokinetic evaluation.

Details of series [6]: method as in PMID 36015320. The note with it: cited from earlier work.
On the set-up of series [7]: method as in PMID 36015320. As to conditions: cited from earlier work. This is another data set of the same source.
A further series has as its system KARPAS 299. The note with it: cited from earlier work.
The subject of a further series is nB1 (neuroblastoma). As to conditions: cited from earlier work.
A further series concerns NCI-H2228 (lung cancer). As to conditions: cited from earlier work.
The subject of series [8] is resistance-induced overexpressed TGF-α HGF cells. Also noted: method as in PMID 31857951. As to conditions: cited from earlier work.
Series [9] deals with A549 cells. Also on record: method as in Ata et al. The note with it: ref Ata et al.; cited from earlier work.
The conditions of series [10]: pH 1.2 and 2.5; cited from earlier work.

Turning to `CCc1cc2c(cc1N1CCC(N3CCOCC3)CC1)C(C)(C)c1[nH]c3cc(C#N)ccc3c1C2=O.Cl` [Alectinib, 9-ethyl-6,6-dimethyl-8-[4-(morpholine-4-yl)piperidin-1-yl]-11-oxo-6,11-dihydro-5H-benzo[b]carbazole-3-carbonitrile hydrochloride], the “Alectinib released over 48 h” value in [1] is recorded as 11.1% ± 0.11. Further, the concentration for half-maximal inhibition (IC50) in [2] is 4190 nM; in the series with KARPAS 299, 3 nM; in the series on nB1 (neuroblastoma), 4.5 nM; with NCI-H2228 (lung cancer), 53 nM; in series [8] it was 38.2 nM; in the series on A549 cells [9], 9.63 µg/mL. Besides, the “scratch assay outcome in words” value in the series on A549 cells [3] is listed as “completely eradicated the cells”. The “tumor outcome in words after 17 days of treatment” value in [4] is “minimal amount of residual tumor tissue”. The “tumor regression / reduction after 17 days of treatment” value in series [4] is recorded as 75%. Further, in series [5] (male, Wistar, plasma), the AUC(0-inf) stood at 11800 ng·h/mL. The same compound gave a half-life in series [5] (male, Wistar, plasma) of 15.4 ± 1.6 h. Moreover, the k el in series [5] (male, Wistar, plasma) was 1.25e-05 s⁻¹. Besides, the AUC0-t came to 9840 ng·h/mL in series [5] (male, Wistar, plasma, po, read-out: AUC0-t) and 9842.03 ± 3986 ng·h/mL in series [5] (listed as Free Alectinib). The C-max in series [5] is listed as 313.83 ± 150.83 ng/mL. For the same compound, in [5], the T-max is 9.33 ± 1.1 h. For the same compound, in series [5] (assumption of linear absorption), the “absorption rate constant (Ka)” value is 0.43 h⁻¹. The permeability in [6] is 250 ×10⁻⁶ cm/s. The absolute bioavailability in [7] is 37%. Also, in series [10], the “stability at low pH” value is “degradation of Alectinib at low pH”.
